Data reported in PMC3047591 (Inorganic chemistry, 2011).

Tests used:
[1] = molecular target: T1, His93Gly sperm whale myoglobin (H93G Mb) (Physeter macrocephalus, UniProt P02185, H94G); assay: electronic absorption and MCD spectroscopy of mixed CHA/Im adduct; format: binding
[2] = molecular target: T1, His93Gly sperm whale myoglobin (H93G Mb); assay: electronic absorption and MCD spectroscopy, titration; format: binding

T1 sequence (P02185 2-154 H94G): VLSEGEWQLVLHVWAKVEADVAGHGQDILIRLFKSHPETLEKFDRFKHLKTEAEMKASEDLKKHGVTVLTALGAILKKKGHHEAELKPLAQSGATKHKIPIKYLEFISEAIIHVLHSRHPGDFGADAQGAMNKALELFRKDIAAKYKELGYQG

| SMILES | electronic absorption and MCD spectroscopy of mixed CHA/Im adduct [1] | electronic absorption and MCD spectroscopy, titration [2] |
| --- | --- | --- |
| c1c[nH]cn1 [Im, imidazole] | the final spectrum is that of a nearly homogeneous Im/CHA mixed-ligand adduct | – |
| NC1CCCCC1 [CHA, cyclohexylamine] | – | ferric CHA-ligated H93G Mb is a six-coordinate high-spin H93G Mb derivative with the CHA amine group as the proximal donor |
